Measured values as given in BindingDB's records for doi:10.1016/j.ejmech.2019.111646 (Hangzhou Xixi Hospital, 2019).

Experiments:
[1] = Inhibition of 20S proteasome beta 2c (unknown origin) after 1 hr by fluorescence based assay
[2] = Inhibition of 20S proteasome beta 1c (unknown origin) after 1 hr by fluorescence based assay

IC50 [1]: 28 nM | IC50 [2]: 430 nM
SMILES: COc1ccc([C@@H](O)[C@H](NC(=O)[C@H](C)NC(=O)CN2CCOCC2)C(=O)N[C@@H](CC2=CCCC2)C(=O)[C@@]2(C)CO2)cc1 [Kzr-616]
